According to article PMC5218480 (PLoS ONE, 2017):

Test system: MV-4-11 cells
Test: Gene expression microarray analysis (Affymetrix PrimeView) and GSEA
Assay type: cell-based, human
Parameters: RFU PODN (11730768_x_at) / Fold change /veh PODN (11730768_x_at) / RFU LINC00158 (11744669_a_at) / Fold change /veh LINC00158 (11744669_a_at) / RFU DUSP10 (11751237_a_at) / Fold change /veh DUSP10 (11751237_a_at) / RFU ID3 (11757404_x_at) / Fold change /veh ID3 (11757404_x_at) / RFU PLEKHG5 (11737974_s_at) / Fold change /veh PLEKHG5 (11737974_s_at) / RFU LRRC4B (11730491_at) / Fold change /veh LRRC4B (11730491_at) / RFU GIMAP4 (11747438_a_at) / Fold change /veh GIMAP4 (11747438_a_at) / RFU KRT8 (11758183_x_at) / Fold change /veh KRT8 (11758183_x_at) / RFU CNN1 (11734310_a_at) / Fold change /veh CNN1 (11734310_a_at) / RFU VPS37D (11726825_at) / Fold change /veh VPS37D (11726825_at) / RFU C10orf10 (11716522_x_at) / Fold change /veh C10orf10 (11716522_x_at) / RFU KIR2DL2 /// KIR2DL4 /// KIR2DL5A /// KIR2DL5B /// KIR2DS1 /// KIR2DS2 /// KIR2DS3 /// KIR2DS4 /// KIR3DL3 /// KIR3DL3 /// KIR3DS1 (11738374_at) / Fold change /veh KIR2DL2 /// KIR2DL4 /// KIR2DL5A /// KIR2DL5B /// KIR2DS1 /// KIR2DS2 /// KIR2DS3 /// KIR2DS4 /// KIR3DL3 /// KIR3DL3 /// KIR3DS1 (11738374_at) / RFU C1QL1 (11718748_at) / Fold change /veh C1QL1 (11718748_at) / RFU TMPRSS4 (11747572_a_at) / Fold change /veh TMPRSS4 (11747572_a_at) / RFU HAMP (11756126_x_at) / Fold change /veh HAMP (11756126_x_at) / RFU RNFT2 (11725882_a_at) / Fold change /veh RNFT2 (11725882_a_at) / RFU NR4A2 (11747474_a_at) / Fold change /veh NR4A2 (11747474_a_at) / RFU ABCC12 (11746883_a_at) / Fold change /veh ABCC12 (11746883_a_at) / RFU TMEM136 (11760407_x_at) / Fold change /veh TMEM136 (11760407_x_at) / RFU CLDN22 /// WWC2 (11732394_at) / Fold change /veh CLDN22 /// WWC2 (11732394_at) / RFU HLA-DPB1 (11760878_x_at) / Fold change /veh HLA-DPB1 (11760878_x_at) / RFU SPINT1 (11716480_a_at) / Fold change /veh SPINT1 (11716480_a_at) / RFU GAP43 (11754022_s_at) / Fold change /veh GAP43 (11754022_s_at) / RFU A4GNT (11735810_at) / Fold change /veh A4GNT (11735810_at) / RFU PRB3 (11715151_x_at) / Fold change /veh PRB3 (11715151_x_at) / RFU TUBB4B (11761932_at) / Fold change /veh TUBB4B (11761932_at) / RFU CAPN14 (11732068_a_at) / Fold change /veh CAPN14 (11732068_a_at) / RFU TMCC2 (11721928_a_at) / Fold change /veh TMCC2 (11721928_a_at) / RFU IRGQ (11745062_a_at) / Fold change /veh IRGQ (11745062_a_at) / RFU FAM174B (11720279_a_at) / Fold change /veh FAM174B (11720279_a_at) / RFU TMPRSS4 (11748680_a_at) / Fold change /veh TMPRSS4 (11748680_a_at) / RFU FAM212B (11763350_a_at) / Fold change /veh FAM212B (11763350_a_at) / RFU PLEKHG5 (11743358_a_at) / Fold change /veh PLEKHG5 (11743358_a_at) / RFU ZSCAN30 (11745921_a_at) / Fold change /veh ZSCAN30 (11745921_a_at) / RFU CMKLR1 (11741424_a_at) / Fold change /veh CMKLR1 (11741424_a_at) / RFU LOC101060620 /// MAPK8IP1 (11723275_at) / Fold change /veh LOC101060620 /// MAPK8IP1 (11723275_at) / RFU SPTSSB (11747773_x_at) / Fold change /veh SPTSSB (11747773_x_at) / RFU PRSS12 (11739890_at) / Fold change /veh PRSS12 (11739890_at) / RFU BIN1 (11741810_x_at) / Fold change /veh BIN1 (11741810_x_at) / RFU WNT11 (11732464_a_at) / Fold change /veh WNT11 (11732464_a_at) / RFU C10orf10 (11716521_a_at) / Fold change /veh C10orf10 (11716521_a_at) / RFU C5orf56 (11738089_at) / Fold change /veh C5orf56 (11738089_at) / RFU CYB561 (11721691_x_at) / Fold change /veh CYB561 (11721691_x_at) / RFU ANKRD19P (11752326_a_at) / Fold change /veh ANKRD19P (11752326_a_at) / RFU OR2T12 /// OR2T33 /// OR2T8 (11738714_s_at) / Fold change /veh OR2T12 /// OR2T33 /// OR2T8 (11738714_s_at) / RFU VCAN (11748164_a_at) / Fold change /veh VCAN (11748164_a_at) / RFU JSRP1 (11732532_at) / Fold change /veh JSRP1 (11732532_at) / RFU KRTAP10-11 (11738290_x_at) / Fold change /veh KRTAP10-11 (11738290_x_at) / RFU MYO3A (11730013_a_at) / Fold change /veh MYO3A (11730013_a_at) / RFU EBF3 (11725865_a_at) / Fold change /veh EBF3 (11725865_a_at) / RFU CAMK2N1 (11719241_x_at) / Fold change /veh CAMK2N1 (11719241_x_at) / RFU C5orf56 (11738088_a_at) / Fold change /veh C5orf56 (11738088_a_at) / RFU OLFML3 (11715873_a_at) / Fold change /veh OLFML3 (11715873_a_at) / RFU LOC100653217 /// NTM (11731650_a_at) / Fold change /veh LOC100653217 /// NTM (11731650_a_at) / RFU MAPK11 (11762145_a_at) / Fold change /veh MAPK11 (11762145_a_at) / RFU FIZ1 (11724087_x_at) / Fold change /veh FIZ1 (11724087_x_at) / RFU OASL (11726364_x_at) / Fold change /veh OASL (11726364_x_at) / RFU SOX15 (11748057_x_at) / Fold change /veh SOX15 (11748057_x_at) / RFU CD79A (11719716_a_at) / Fold change /veh CD79A (11719716_a_at) / RFU HIST1H1D (11736915_at) / Fold change /veh HIST1H1D (11736915_at) / RFU CASKIN2 (11723855_a_at) / Fold change /veh CASKIN2 (11723855_a_at) / RFU LOC730098 (11760151_x_at) / Fold change /veh LOC730098 (11760151_x_at) / RFU OR4N2 (11742367_at) / Fold change /veh OR4N2 (11742367_at) / RFU PRRT2 (11749266_a_at) / Fold change /veh PRRT2 (11749266_a_at) / RFU SNX32 (11753110_a_at) / Fold change /veh SNX32 (11753110_a_at) / RFU CDHR5 (11726645_a_at) / Fold change /veh CDHR5 (11726645_a_at) / RFU RCAN1 (11760418_a_at) / Fold change /veh RCAN1 (11760418_a_at) / RFU FAM167A (11723789_a_at) / Fold change /veh FAM167A (11723789_a_at) / RFU FAM26E (11764081_at) / Fold change /veh FAM26E (11764081_at) / RFU ISYNA1 (11749810_s_at) / Fold change /veh ISYNA1 (11749810_s_at) / RFU ACY1 (11761880_at) / Fold change /veh ACY1 (11761880_at) / RFU 11764098_at / Fold change /veh 11764098_at / RFU SAMD14 (11745864_x_at) / Fold change /veh SAMD14 (11745864_x_at) / RFU NPB (11741838_a_at) / Fold change /veh NPB (11741838_a_at) / RFU TMPRSS6 (11731388_a_at) / Fold change /veh TMPRSS6 (11731388_a_at) / RFU KRTAP10-2 (11738614_at) / Fold change /veh KRTAP10-2 (11738614_at) / RFU ARHGAP8 /// PRR5-ARHGAP8 (11727945_x_at) / Fold change /veh ARHGAP8 /// PRR5-ARHGAP8 (11727945_x_at) / RFU KRTAP5-7 /// NADSYN1 (11734609_at) / Fold change /veh KRTAP5-7 /// NADSYN1 (11734609_at) / RFU RASL12 (11751679_a_at) / Fold change /veh RASL12 (11751679_a_at) / RFU CDKN2B (11736163_a_at) / Fold change /veh CDKN2B (11736163_a_at) / RFU PRF1 (11729649_at) / Fold change /veh PRF1 (11729649_at) / RFU, ZNF638 /// ZNF638-IT1 / Fold change vs veh, ZNF638 /// ZNF638-IT1 / RFU, PANK3 / Fold change vs veh, PANK3 / RFU, SH3YL1 / Fold change vs veh, SH3YL1 / RFU, ZEB2 / Fold change vs veh, ZEB2 / RFU, NRIP1 / Fold change vs veh, NRIP1 / RFU, PTTG1IP / Fold change vs veh, PTTG1IP / RFU, CAPN2 / Fold change vs veh, CAPN2 / RFU, MED14 / Fold change vs veh, MED14 / RFU, SNORA58 / Fold change vs veh, SNORA58 / RFU, C1orf63 / Fold change vs veh, C1orf63 / RFU, LRRFIP1 / Fold change vs veh, LRRFIP1 / RFU, NDUFAF7 / Fold change vs veh, NDUFAF7 / RFU, SLC12A2 / Fold change vs veh, SLC12A2 / RFU, IBTK / Fold change vs veh, IBTK / RFU, ESF1 / Fold change vs veh, ESF1 / Fold change vs veh, TMEM50B / RFU, TAOK1 / Fold change vs veh, TAOK1 / RFU, ACBD3 / Fold change vs veh, ACBD3 / RFU, TMA16 / Fold change vs veh, TMA16 / RFU, RWDD3 / Fold change vs veh, RWDD3 / RFU, BCAT1 / Fold change vs veh, BCAT1 / RFU, EDEM3 / Fold change vs veh, EDEM3 / RFU, TMEM33 / Fold change vs veh, TMEM33 / RFU, WDR75 / Fold change vs veh, WDR75 / RFU, AHCTF1 / Fold change vs veh, AHCTF1 / RFU, TFRC / Fold change vs veh, TFRC / RFU, ZDHHC17 / Fold change vs veh, ZDHHC17 / RFU, NOM1 / Fold change vs veh, NOM1 / RFU, ARL8B / Fold change vs veh, ARL8B / RFU, ZBTB11 / Fold change vs veh, ZBTB11 / RFU, TAMM41 / Fold change vs veh, TAMM41 / RFU, KIAA1704 /// LOC100996395 / Fold change vs veh, KIAA1704 /// LOC100996395 / RFU, ING1 / Fold change vs veh, ING1 / RFU, TRMT61B / Fold change vs veh, TRMT61B / RFU, FUBP3 / Fold change vs veh, FUBP3 / RFU, TP53 / Fold change vs veh, TP53 / RFU, TNKS2 / Fold change vs veh, TNKS2 / RFU, ZFP14 / Fold change vs veh, ZFP14 / RFU, ACTR2 / Fold change vs veh, ACTR2 / RFU, PPP3R1 / Fold change vs veh, PPP3R1 / RFU, PIK3R1 / Fold change vs veh, PIK3R1 / RFU, HNRNPA1 / Fold change vs veh, HNRNPA1 / RFU, RNF170 / Fold change vs veh, RNF170 / RFU, ZNF28 / Fold change vs veh, ZNF28 / RFU, RNGTT / Fold change vs veh, RNGTT / RFU, OGT / Fold change vs veh, OGT / RFU, BRD1 / Fold change vs veh, BRD1 / RFU, MARS / Fold change vs veh, MARS / RFU, ZNF655 / Fold change vs veh, ZNF655 / RFU, FAHD1 / Fold change vs veh, FAHD1 / RFU, BDP1 / Fold change vs veh, BDP1 / RFU, LRRCC1 / Fold change vs veh, LRRCC1 / RFU, ARID1A / Fold change vs veh, ARID1A / RFU, ZNF146 / Fold change vs veh, ZNF146 / RFU, ZNF330 / Fold change vs veh, ZNF330 / RFU, GPN3 / Fold change vs veh, GPN3 / RFU, C9orf123 / Fold change vs veh, C9orf123 / RFU, N4BP2L2 / Fold change vs veh, N4BP2L2 / RFU, ARFIP1 / Fold change vs veh, ARFIP1 / RFU, FAM179B / Fold change vs veh, FAM179B / RFU, BCL10 / Fold change vs veh, BCL10 / RFU, UHRF1BP1L / Fold change vs veh, UHRF1BP1L / RFU, BET1 / Fold change vs veh, BET1 / RFU, CNOT2 / Fold change vs veh, CNOT2 / RFU, ZNF268 / Fold change vs veh, ZNF268 / Fold change vs veh, ZNF507 / RFU, DGCR2 / Fold change vs veh, DGCR2 / RFU, WDSUB1 / Fold change vs veh, WDSUB1 / Fold change vs veh, HSP90B1 /// MIR3652 / RFU, ADSS / Fold change vs veh, ADSS / RFU, GK / Fold change vs veh, GK / RFU, ZNF148 / Fold change vs veh, ZNF148 / RFU, TAF9 / Fold change vs veh, TAF9 / RFU, SLC1A5 / Fold change vs veh, SLC1A5 / RFU, SLMO2 / Fold change vs veh, SLMO2 / RFU, ABCC4 / Fold change vs veh, ABCC4 / RFU, LOC101060439 /// RAP1B / Fold change vs veh, LOC101060439 /// RAP1B / RFU, RFX7 / Fold change vs veh, RFX7 / RFU, GTPBP10 / Fold change vs veh, GTPBP10 / RFU, CNEP1R1 / Fold change vs veh, CNEP1R1 / RFU, BIVM-ERCC5 /// ERCC5 / Fold change vs veh, BIVM-ERCC5 /// ERCC5 / RFU, ILF3 / Fold change vs veh, ILF3 / RFU 11762660_at / Fold change /veh 11762660_at / RFU VCAN (11757783_s_at) / Fold change /veh VCAN (11757783_s_at) / RFU DDX43 (11728927_at) / Fold change /veh DDX43 (11728927_at) / RFU KRT8 (11758188_x_at) / Fold change /veh KRT8 (11758188_x_at) / RFU NKD1 (11759106_at) / Fold change /veh NKD1 (11759106_at) / RFU SRD5A1 (11742802_a_at) / Fold change /veh SRD5A1 (11742802_a_at) / RFU TPSAB1 /// TPSB2 (11721975_s_at) / Fold change /veh TPSAB1 /// TPSB2 (11721975_s_at) / RFU GSTM3 (11746129_a_at) / Fold change /veh GSTM3 (11746129_a_at) / RFU IL23R (11737362_x_at) / Fold change /veh IL23R (11737362_x_at) / RFU TMEM51 (11727254_a_at) / Fold change /veh TMEM51 (11727254_a_at) / RFU PIWIL2 (11732686_x_at) / Fold change /veh PIWIL2 (11732686_x_at) / RFU ORM1 (11744905_x_at) / Fold change /veh ORM1 (11744905_x_at) / RFU CCDC152 (11743942_at) / Fold change /veh CCDC152 (11743942_at) / RFU ECM1 (11717891_a_at) / Fold change /veh ECM1 (11717891_a_at) / RFU IL23R (11748794_a_at) / Fold change /veh IL23R (11748794_a_at) / RFU TNFAIP8L3 (11732012_x_at) / Fold change /veh TNFAIP8L3 (11732012_x_at) / RFU MBOAT4 (11741988_at) / Fold change /veh MBOAT4 (11741988_at) / RFU 11764193_at / Fold change /veh 11764193_at / RFU TMEM53 (11763286_at) / Fold change /veh TMEM53 (11763286_at) / RFU MAGEB2 (11727129_at) / Fold change /veh MAGEB2 (11727129_at) / RFU TMEM200A (11744735_a_at) / Fold change /veh TMEM200A (11744735_a_at) / RFU CCDC152 (11751479_a_at) / Fold change /veh CCDC152 (11751479_a_at) / RFU FAM211A (11726209_a_at) / Fold change /veh FAM211A (11726209_a_at) / RFU RGS16 (11746705_a_at) / Fold change /veh RGS16 (11746705_a_at) / RFU VCAN (11755009_s_at) / Fold change /veh VCAN (11755009_s_at) / RFU RHOB (11743442_s_at) / Fold change /veh RHOB (11743442_s_at) / RFU RGS16 (11720943_a_at) / Fold change /veh RGS16 (11720943_a_at) / RFU RGS16 (11720944_at) / Fold change /veh RGS16 (11720944_at) / RFU, VPS4B / Fold change vs veh, VPS4B / RFU, CREB1 / Fold change vs veh, CREB1 / RFU, DNAJC13 / Fold change vs veh, DNAJC13 / RFU, GNAQ / Fold change vs veh, GNAQ / RFU, CDK5R1 / Fold change vs veh, CDK5R1 / RFU, ZRANB3 / Fold change vs veh, ZRANB3 / RFU, CUL4A / Fold change vs veh, CUL4A / RFU, CCNY / Fold change vs veh, CCNY / RFU, UFL1 / Fold change vs veh, UFL1 / RFU, COG3 / Fold change vs veh, COG3 / RFU, DIAPH2 / Fold change vs veh, DIAPH2 / RFU, SKA2 / Fold change vs veh, SKA2 / RFU, AFF3 / Fold change vs veh, AFF3 / RFU, LMF1 / Fold change vs veh, LMF1 / RFU, IPO11 / Fold change vs veh, IPO11 / RFU, DFFB / Fold change vs veh, DFFB / RFU, FOXP1 / Fold change vs veh, FOXP1 / RFU, CARD8 / Fold change vs veh, CARD8 / RFU, STRN3 / Fold change vs veh, STRN3 / RFU, ADK / Fold change vs veh, ADK / RFU, RASSF2 / Fold change vs veh, RASSF2 / RFU, WIPF1 / Fold change vs veh, WIPF1 / RFU, LARP1B / Fold change vs veh, LARP1B / RFU, RASA1 / Fold change vs veh, RASA1 / RFU, RB1 / Fold change vs veh, RB1 / RFU, PPFIA1 / Fold change vs veh, PPFIA1 / RFU, MAT2A / Fold change vs veh, MAT2A / RFU, CCT5 / Fold change vs veh, CCT5 / RFU, WDR92 / Fold change vs veh, WDR92 / RFU, CUX1 / Fold change vs veh, CUX1 / RFU, TTC7A / Fold change vs veh, TTC7A / RFU, TMEM135 / Fold change vs veh, TMEM135 / RFU, DEPTOR / Fold change vs veh, DEPTOR / RFU, CPM / Fold change vs veh, CPM / RFU, DNAJB6 / Fold change vs veh, DNAJB6 / RFU, CACNA2D3 / Fold change vs veh, CACNA2D3 / RFU, DTX4 / Fold change vs veh, DTX4 / RFU, TFCP2 / Fold change vs veh, TFCP2 / RFU, GMCL1 /// GMCL1P1 / Fold change vs veh, GMCL1 /// GMCL1P1 / RFU, AEBP2 / Fold change vs veh, AEBP2 / RFU, SNHG1 /// SNORD22 /// SNORD25 /// SNORD26 /// SNORD27 /// SNORD28 /// SNORD29 /// SNORD31 / Fold change vs veh, SNHG1 /// SNORD22 /// SNORD25 /// SNORD26 /// SNORD27 /// SNORD28 /// SNORD29 /// SNORD31 / Fold change (Aza/veh), C12orf56 (ProbeSet 11735607_a_at) / Fold change (ACY-1035/veh), C12orf56 (ProbeSet 11735607_a_at) / Fold change (Aza/veh), FGFR1OP (ProbeSet 11751329_s_at) / Fold change (ACY-1035/veh), FGFR1OP (ProbeSet 11751329_s_at) / Fold change (Aza/veh), VPS36 (ProbeSet 11739960_a_at) / Fold change (ACY-1035/veh), VPS36 (ProbeSet 11739960_a_at) / RFU SYPL1 (11715823_x_at) / Fold change /veh SYPL1 (11715823_x_at) / RFU IGFBP7 (11715501_s_at) / Fold change /veh IGFBP7 (11715501_s_at) / RFU REEP3 (11722064_at) / Fold change /veh REEP3 (11722064_at) / RFU IGLL1 (11728026_x_at) / Fold change /veh IGLL1 (11728026_x_at): dose or concentration left out as unconfirmed
Conditions: ProbeSet 11745428_a_at; LIST D

How did the “Fold change vs veh, DFFB” value turn out when `Nc1ccc(-c2cccs2)cc1NC(=O)c1ccc2c(c1)cc(C1CC1)n2CCN1CCOCC1` [ACY-1035] was run?
The value was 0.87.
